In patent US20190085024A1, “Alpha-Ketoamide Inhibitors Of Cysteine Proteases” (Phelix Therapeutics, priority 2017, published 2019):
*1 amine or outer side, *2 acyl side, *3 side chain or, on linkers, in order; H or OH if unused. Where a SMILES comes first, the peptide text is derived from it. [ ]: non-standard residue; d: D form. 2Nal = N[CH](Cc1ccc2ccccc2c1)C(=O)O; X1 = CCC(C)C(N[*:1])C(=O)C(=O)[*:2]

Legend:
Cathepsin L = Cathepsin L (Homo sapiens, UniProt P07711); test: Cathepsin L enzyme assay; type: biochemical; conditions: Ki by Morrison equation; pH 5.5, substrate Z-Phe-Arg-Amc; read-out: Cat L
Cathepsin L, sequence (P07711 114-333, species assumed): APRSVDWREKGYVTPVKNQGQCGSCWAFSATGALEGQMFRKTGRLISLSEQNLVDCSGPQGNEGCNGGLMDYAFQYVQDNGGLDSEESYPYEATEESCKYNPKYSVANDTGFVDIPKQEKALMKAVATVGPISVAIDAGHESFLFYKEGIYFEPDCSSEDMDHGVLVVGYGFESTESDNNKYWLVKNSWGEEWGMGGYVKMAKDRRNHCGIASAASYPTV
From the text: Two wells contained DMSO only for controls.
Velocity was converted to μM/sec.

Calpain = Calpain enzyme assay; type: biochemical; conditions: Ki by Morrison equation; pH 7.5, 5 mM CaCl2

| Ki (Cathepsin L) | Ki (Calpain) | Compound |
| --- | --- | --- |
| 0.00073 µM | 0.00203 µM | CCC(C)C(NC(=O)C(CC(C)C)NC(=O)OCc1ccccc1)C(=O)C(=O)NC(Cc1cccc(F)c1)C(N)=O (stereo not shown) [PHELIX359, benzyl (1-((1-((1-amino-3-(3-fluorophenyl)-1-oxopropan-2-yl)amino)-4-methyl-1,2-dioxohexan-3-yl)amino)-4-methyl-1-oxopentan-2-yl)carbamate] |
| 0.0206 µM | 0.0267 µM | CC[C@H](C)C(NC(=O)[C@H](CC(C)C)NC(=O)OCc1ccccc1)C(=O)C(=O)N[C@@H](Cc1cccnc1)C(N)=O (stereo partly shown) [PHELIX344] |
| 0.906 µM | > 1 µM | CC[C@H](C)C(NC(=O)[C@H](CC(C)C)NC(=O)OCc1ccccc1)C(=O)C(=O)N1CC(C(=O)O)C1 (stereo partly shown) [PHELIX367, 1-(3-(2-(((benzyloxy)carbonyl)amino)-4-methylpentanamido)-4-methyl-2-oxohexanoyl)azetidine-3-carboxylic acid] |
| 0.389 µM | 0.201 µM | CCC(C)C(NC(=O)C(Cc1c[nH]cn1)NC(=O)Cc1ccccc1)C(=O)C(=O)NCC(=O)NC(Cc1ccc2ccccc2c1)C(N)=O (stereo not shown) [PHELIX302, 3-(3-(1H-imidazol-4-yl)-2-(2-phenylacetamido)propanamido)-N-(2-((1-amino-3-(naphthalen-2-yl)-1-oxopropan-2-yl)amino)-2-oxoethyl)-4-methyl-2-oxohexanamide] |
| 0.00439 µM | 0.0155 µM | CCC(C)C(NC(=O)C(CC(C)C)NC(=O)OCc1ccccc1)C(=O)C(=O)NCC(=O)NC(Cc1ccncc1)C(N)=O (stereo not shown) [PHELIX357, benzyl (1-((1-((2-((1-amino-1-oxo-3-(pyridin-4-yl)propan-2-yl)amino)-2-oxoethyl)amino)-4-methyl-1,2-dioxohexan-3-yl)amino)-4-methyl-1-oxopentan-2-yl)carbamate] |
| 0.101 µM | 0.071 µM | CCC(C)C(NC(=O)C(CC(N)=O)NC(=O)Cc1ccccc1)C(=O)C(=O)NCC(=O)NC(Cc1ccc2ccccc2c1)C(N)=O (stereo not shown) [PHELIX322, N^1-(1-((2-((1-amino-3-(naphthalen-2-yl)-1-oxopropan-2-yl)amino)-2-oxoethyl)amino)-4-methyl-1,2-dioxohexan-3-yl)-2-(2-phenylacetamido)succinamide] |
| 0.0313 µM | 0.0202 µM | CCC(C)C(NC(=O)C(CC(C)C)NC(=O)OCc1ccccc1)C(=O)C(=O)NC(Cc1ccncc1)C(N)=O (stereo not shown) [PHELIX342, benzyl (1-((1-((1-amino-1-oxo-3-(pyridin-4-yl)propan-2-yl)amino)-4-methyl-1,2-dioxohexan-3-yl)amino)-4-methyl-1-oxopentan-2-yl)carbamate] |
| < 0.0001 µM | 0.00991 µM | CCC(C)C(NC(=O)C(CC(C)C)NC(=O)CN1CCN(C)CC1)C(=O)C(=O)NCC(=O)NC(Cc1ccc2ccccc2c1)C(N)=O (stereo not shown) [PHELIX313, N-(2-((1-amino-3-(naphthalen-2-yl)-1-oxopropan-2-yl)amino)-2-oxoethyl)-4-methyl-3-(4-methyl-2-(2-(4-methylpiperazin-1-yl)acetamido)pentanamido)-2-oxohexanamide] |
| 0.00059 µM | 0.00098 µM | CCC(C)C(NC(=O)C(CC(C)C)NC(=O)Cc1ccncc1)C(=O)C(=O)NCC(=O)NC(Cc1ccc2ccccc2c1)C(N)=O (stereo not shown) [PHELIX333, N-(2-((1-amino-3-(naphthalen-2-yl)-1-oxopropan-2-yl)amino)-2-oxoethyl)-4-methyl-3-(4-methyl-2-(2-(pyridin-4-yl)acetamido)pentanamido)-2-oxohexanamide] |
| 0.00043 µM | 0.00067 µM | CCC(C)C(NC(=O)C(CC(C)C)NC(=O)NCc1ccccc1)C(=O)C(=O)NCC(=O)NC(Cc1ccc2ccccc2c1)C(N)=O (stereo not shown) [PHELIX334, N-(2-((1-amino-3-(naphthalen-2-yl)-1-oxopropan-2-yl)amino)-2-oxoethyl)-3-(2-(3-benzylureido)-4-methylpentamido)-4-methyl-2-oxohexanamide] |
| 0.00115 µM | 0.00237 µM | CCC(C)C(NC(=O)C(CC1CC1)NC(=O)Cc1ccccc1)C(=O)C(=O)NCC(=O)NC(Cc1ccc2ccccc2c1)C(N)=O (stereo not shown) [PHELIX332, N-(2-((1-amino-3-(naphthalen-2-yl)-1-oxopropan-2-yl)amino)-2-oxoethyl)-3-(3-cyclopropyl-2-(2-phenylacetamido)propanamido)-4-methyl-2-oxohexanamide] |
| 2.88 µM |  | CCC(C)C(NC(=O)CNC(=O)C(Cc1ccc2ccccc2c1)NC(C)=O)C(=O)C(=O)NC(CC(C)C)C(=O)NC(Cc1ccccc1)C(N)=O (stereo not shown) [PHELIX338, 3-(2-(2-acetamido-3-(naphthalen-2-yl)propanamido)acetamido)-N-(1-((1-amino-1-oxo-3-phenylpropan-2-yl)amino)-4-methyl-1-oxopentan-2-yl)-4-methyl-2-oxohexanamide] (Ac-[2Nal]G[X1]LF-NH2; configuration not given here) |
| 5.91 µM | > 10 µM | CCC(C)C(NC(=O)C(CC(C)C)NC(=O)OCc1ccccc1)C(=O)C(=O)N(C)CC(=O)NC(Cc1ccc2ccccc2c1)C(N)=O (stereo not shown) [PHELIX291, benzyl (1-((1-((2-((1-amino-3-(naphthalen-2-yl)-1-oxopropan-2-yl)amino)-2-oxoethyl)(methyl)amino)-4-methyl-1,2-dioxohexan-3-yl)amino)-4-methyl-1-oxopentan-2-yl)carbamate] |
|  | 1.19 µM | CCC(C)C(NC(=O)C(CC(C)C)NC(=O)OCc1ccccc1)C(=O)C(=O)NCC(=O)NC(Cc1ccc2ccccc2c1)C(N)=O (stereo not shown) [PHELIX293, benzyl (1-((1-((2-((1-amino-3-(naphthalen-2-yl)-1-oxopropan-2-yl)amino)-2-oxoethyl)amino)-4-methyl-1,2-dioxohexan-3-yl)amino)-4-methyl-1-oxopentan-2-yl)carbamate] |
| 0.106 µM | 0.309 µM | CCC(C)C(NC(=O)C(Cc1c[nH]cn1)NC(=O)OCc1ccccc1)C(=O)C(=O)NCC(=O)NC(Cc1ccc2ccccc2c1)C(N)=O (stereo not shown) [PHELIX311, benzyl (1-((1-((2-((1-amino-3-(naphthalen-2-yl)-1-oxopropan-2-yl)amino)-2-oxoethyl)amino)-4-methyl-1,2-dioxohexan-3-yl)amino)-3-(1H-imidazol-4-yl)-1-oxopropan-2-yl)carbamate] |
|  | 0.00092 µM | CCC(C)C(NC(=O)C(CC(C)C)NC(=O)OCc1ccccc1)C(=O)C(=O)NCC(=O)NC(Cc1ccc2ccccc2c1)C(N)=O (stereo not shown) [PHELIX257, benzyl (1-((1-((2-((1-amino-3-(naphthalen-2-yl)-1-oxopropan-2-yl)amino)-2-oxoethyl)amino)-4-methyl-1,2-dioxohexan-3-yl)amino)-4-methyl-1-oxopentan-2-yl)carbamate] |
| > 1 µM |  | CCC(C)C(NC(=O)C(CC(C)C)NC(=O)OCc1ccccc1)C(=O)C(=O)N(C)C(Cc1ccccc1)C(N)=O (stereo not shown) [PHELIX358, benzyl (1-((1-((1-amino-1-oxo-3-phenylpropan-2-yl)(methyl)amino)-4-methyl-1,2-dioxohexan-3-yl)amino)-4-methyl-1-oxopentan-2-yl)carbamate] |
|  | 0.00261 µM | CCC(C)C(NC(=O)C(CC(C)C)NC(C)=O)C(=O)C(=O)NCC(=O)NC(Cc1ccc2ccccc2c1)C(N)=O (stereo not shown) [PHELIX307, 3-(2-acetamido-4-methylpentanamido)-N-(2-((1-amino-3-(naphthalen-2-yl)-1-oxopropan-2-yl)amino)-2-oxoethyl)-4-methyl-2-oxohexanamide] |
|  | > 10 µM | CC(NC(=O)C(Cc1ccccc1)NC(=O)Cc1ccccc1)C(=O)C(=O)NC(Cc1ccccc1)C(=O)NC(Cc1ccc(-c2ccccc2)cc1)C(N)=O (stereo not shown) [PHELIX213, N-(1-((3-([1,1′-biphenyl]-4-yl)-1-amino-1-oxopropan-2-yl)amino)-1-oxo-3-phenylpropan-2-yl)-2-oxo-3-(3-phenyl-2-(2-phenylacetamido)propanamido)butanamide] |
|  | 0.0055 µM | CCC(C)C(NC(=O)C(CC(C)C)NC(C)=O)C(=O)C(=O)NCC(=O)NC(Cc1ccc2ccccc2c1)C(N)=O (stereo not shown) [PHELIX310] |
|  | > 10 µM | CC(NC(=O)C(Cc1ccccc1)NC(=O)Cc1ccccc1)C(=O)C(=O)NC(Cc1ccccc1)C(=O)NC(Cc1ccc(-c2ccccc2)cc1)C(N)=O (stereo not shown) [PHELIX248, N-(1-((3-([1,1′-biphenyl]-4-yl)-1-amino-1-oxopropan-2-yl)amino)-1-oxo-3-phenylpropan-2-yl)-2-oxo-3-(3-phenyl-2-(2-phenylacetamido)propanamido)butanamide] |
| > 1000 µM |  | CCC(C)C(NC(=O)C(=O)CCNC(=O)C(Cc1ccccc1)NC(=O)Cc1ccccc1)C(=O)NC(C)(C)C(=O)O (stereo not shown) [PHELIX218, 13-benzyl-5-(sec-butyl)-2,2-dimethyl-4,7,8,12,15-pentaoxo-16-phenyl-3,6,11,14-tetraazahexadecanoic acid] |
|  | > 10 µM | CC(NC(=O)C(Cc1ccccc1)NC(=O)Cc1ccccc1)C(=O)C(=O)NC(Cc1ccccc1)C(=O)NC(Cc1ccc(-c2ccccc2)cc1)C(N)=O (stereo not shown) [PHELIX247, N-(1-((3-([1,1′-biphenyl]-4-yl)-1-amino-1-oxopropan-2-yl)amino)-1-oxo-3-phenylpropan-2-yl)-2-oxo-3-(3-phenyl-2-(2-phenylacetamido)propanamido)butanamide] |
| 210 µM |  | CCC(C)C(NC(=O)C(=O)CCNC(=O)Cc1ccccc1)C(=O)NC(C)(C)C(=O)O (stereo not shown) [PHELIX133, 2-methyl-2-(3-methyl-2-(2-oxo-4-(2-phenylacetamido)butanamido)pentanamido)propanoic acid] |

| Compound | Ki (Cathepsin L) | Ki (Calpain) |
| --- | --- | --- |
| CC(NC(=O)C(Cc1ccccc1)NC(=O)Cc1ccccc1)C(=O)C(=O)NC(Cc1ccccc1)C(=O)NC(Cc1ccc2ccccc2c1)C(N)=O (stereo not shown) [PHELIX216, N-(1-((1-amino-3-(naphthalen-2-yl)-1-oxopropan-2-yl)amino)-1-oxo-3-phenylpropan-2-yl)-2-oxo-3-(3-phenyl-2-(2-phenylacetamido)propanamido)butanamide] | > 1000 µM | > 100 µM |
| CC(C)CC(NC(=O)C(Cc1ccccc1)NC(=O)OCc1ccccc1)C(=O)NC(Cc1ccccc1)C(=O)C(=O)NC(CCCNC(=N)N)C(N)=O (stereo not shown) [PHELIX339, benzyl (1-amino-10-benzyl-6-carbamoyl-1-imino-13-isobutyl-8,9,12,15-tetraoxo-17-phenyl-2,7,11,14-tetraazaheptadecan-16-yl)carbamate] |  | 0.00218 µM |
